# Test results reported in US20010044384A1, “Method of preventing premature fruit drop from apple trees” (priority 1998, published 2001).
# Legend:
# Type in all cases: in vivo
# [1] = system: McIntosh® Apple trees; test: Example 2: cyclanilide vs ReTain vs untreated on apple trees, results just before harvest; conditions: for % cumulative fruit dropped from tree / Fruit Starch Index: just before harvest
# Excerpt: An orchard of McIntosh® Apple trees at a stage where the apples were approximately 4.5 cm in diameter were sprayed with an aqueous suspension comprising cyclanilide and Regulaid®, a non-ionic surfactant (0.25% v/v) at several rates. About two months later, the following observations were made:
# The process of Example 1 was repeated using an aqueous suspension comprising cyclanilide and a surfactant using an application rate of cyclanilide of 50 g/ha. As a comparison, ReTain® ([S]-trans-2-amino-4-(2-aminoethoxy)-3-butenoic acid) was applied according to commercially acceptable methods on another plot of trees and another plot of trees were left untreated.
# Just before harvest, the following results were obtained: […]
# [2] = system: McIntosh® Apple trees; test: Example 1: spraying McIntosh apple trees with cyclanilide suspension, observations about two months later; conditions: about two months after spraying; for % fruit dropped from tree: with Regulaid 0.25% v/v
# Excerpt: An orchard of McIntosh® Apple trees at a stage where the apples were approximately 4.5 cm in diameter were sprayed with an aqueous suspension comprising cyclanilide and Regulaid®, a non-ionic surfactant (0.25% v/v) at several rates. About two months later, the following observations were made: […]
# [3] = system: apple trees; test: General findings on apples treated by the method of the invention (description)
# [4] = compared with untreated fruit and fruit treated by prior art compounds
Structure (SMILES),% cumulative fruit dropped from tree ([1]; 125 g/ha of ingredient),Fruit Starch Index ([1]; 125 g/ha of ingredient),BRIX index (soluble solids) ([2]; cyclanilide 50 g/ha),Fruit Starch Index ([2]; cyclanilide 50 g/ha),% fruit dropped from tree ([2]; cyclanilide 50 g/ha),BRIX index (soluble solids) ([2]; cyclanilide 100 g/ha),Fruit Starch Index ([2]; cyclanilide 100 g/ha),% fruit dropped from tree ([2]; cyclanilide 100 g/ha),BRIX index (soluble solids) ([2]; cyclanilide 200 g/ha),Fruit Starch Index ([2]; cyclanilide 200 g/ha),% fruit dropped from tree ([2]; cyclanilide 200 g/ha),% cumulative fruit dropped from tree ([1]; 50 g/ha of ingredient),Fruit Starch Index ([1]; 50 g/ha of ingredient),"color of the fruit ([1]; cyclanilide 50 g/ha, compared with ReTain-treated fruit)","overall quality of fruit ([1]; cyclanilide 50 g/ha, compared with untreated fruit and ReTain-treated fruit)",starch content of apples ([3]; compared with apples not treated),color characteristic of apples ([3]; compared with fruit treated by prior art compounds),"content of soluble solids as measured by the BRIX index [3, 4]","firmness of apples [3, 4]",amount of fruit drop as a function of the amount applied ([3]; general statement)
"NCCO/C=C/[C@H](N)C(=O)O (stereo in doubt) [ReTain ®, [S]-trans-2-amino-4-(2-aminoethoxy)-3-butenoic acid, reference compound]",68.2%,5.4,–,–,–,–,–,–,–,–,–,–,–,–,–,–,–,–,–,–
"O=C(O)C1(C(=O)Nc2ccc(Cl)cc2Cl)CC1 [cyclanilide, 1-(2,4-dichloroanilinocarbonyl)cyclopropane carboxylic acid]",–,–,13,5.1,6%,12.9,5.0,9.8%,13.0,4.9,13.5%,47.4%,5.0,better than that of the fruit treated by the prior art compound ReTain®,better than that of the untreated fruit and that obtained from treatment by the prior art compound ReTain®,lower starch content than apples not treated by the method of the invention,better color characteristic than fruit treated by prior art compounds,higher content of soluble solids than untreated fruit and than fruit treated by prior art compounds,greater firmness than untreated fruit and than fruit treated by prior art compounds,generally decreases as a function of the amount of cyclanilide applied
